Experimental data as given in US20250179040A1, “HISTAMINE H3 RECEPTOR ANTAGONISTS AND THEIR PHARMACEUTICAL USES” (HANGZHOU BIO-SINCERITY PHARMA-TECH CO., LTD., priority 2022, published 2025).

How the values were obtained:
hERG channel = hERG channel (Homo sapiens, UniProt Q12809); assay: in vitro; conditions: Average inhibition rate (%) on hERG channel
Description: In cardiomyocytes, inhibition of the delayed rectifier potassium current (IKr) channel protein encoded by the human Ether-a-go-go Related Gene (hERG) is the most important mechanism by which drugs lead to prolongation of the QT interval. hERG is characterized by a specific molecular structure, which allows it to be inhibited by different structures, leading to severe arrhythmias. Statistically, 25-40% of lead compounds show varying degrees of hERG-related toxicity. Therefore, early evaluation of the effects of compounds on hERG is crucial in the drug development process.
The inhibition rate of compounds on hERG channels was examined by manual membrane clamp technique on HEK293 cell line which is stably expressing hERG ion channels.

histamine H3 receptor = histamine H3 receptor (Homo sapiens, UniProt Q9Y5N1); assay: FLPPR assay, antagonistic activity on histamine H3 receptor; assay type: cell-based; conditions: for inhibition at 0.005 µM: read-out: % Inh-AVERAGE @ 5 nM; for inhibition at 0.05 µM: read-out: % Inh-AVERAGE @ 50 nM
Protocol: The FLPPR assay (NIH Assay Guidance Manual: HTS Assay Validation-Section 4.3. Analysis (Potency), htpps://www.ncbi.nlm.nih.gov/books/NBK83783) was performed using SUVN-G3031 as a positive control, and 21 target compounds were tested for the antagonistic activity target to histamine H3 receptor.

CCI model rats = assay: Analgesic effect, chronic constriction injury (CCI) model, mechanical withdrawal threshold; assay type: in vivo, SD rats
Description: Exposing the sciatic nerve on male SD rats' (180-200 g) right hind leg, in the anterior segment where the sciatic nerve is about to bifurcate, use sterile chromic gut thread (No. 4, 0.15 mm in diameter) to ligate 4 loops loosely, with each loop 1-2 mm apart, and suture the muscle and skin to establish the chronic constriction injury (CCI) model. In the sham-operated group, only the sciatic nerve was exposed without ligation, and the muscle and skin were sutured. The mechanical withdrawal threshold was detected by electronic analgesia meter (IITC-2391) on the 7th day for 2 consecutive days.
The CCI model rats with stabilized mechanical withdrawal thresholds were randomly divided into five groups, named model group (model), pregabalin group (Pre, 30 mg/kg), BIOS-B-12 compound group (3 mg/kg), BIOS-B-12 compound group (1 mg/kg), and BIOS-B-12 compound group (0.3 mg/kg), and were administered at 1 mL/100 g by gavage, and the same column of saline was gavaged in Sham an model group. The basic value was determined before drug administration, and the mechanical withdrawal thresholds were detected at 0.5 h, 1 h, 2 h, 4 h, 6 h, and 24 h after a single drug administration, and the p value was calculated by ANOVA with T-test.
The CCI model rats with stabilized mechanical withdrawal thresholds were randomly divided into three groups, named model group (model), pregabalin group (Pre, 30 mg/kg), and BIOS-B-14 compound group (1 mg/kg), and were administered at 1 mL/100 g by gavage, and the same column of saline was gavaged in Sham and model group. The basic value was determined before drug administration, and the mechanical withdrawal thresholds were detected at 0.5 h, 1 h, 2 h, 4 h, and 6 h after a single drug administration, and the p value was calculated by ANOVA with T-test.

[1] = system: histamine-induced scratching; assay: Antipruritic ability, histamine-induced scratching in mice; assay type: in vivo, C57BL/6J mice; conditions: for Inhibition Rate (%) of number of scratches: BIOS-B-12 10 mg/kg 4 h, BIOS-B-18 10 mg/kg 1 h, Dex 3 mg/kg 1 h before histamine 500 μg/50 μL s.c., observed 30 min, (Model-Compound)/Model×100%
Protocol: The C57BL/6J male mice, with 6-8 weeks old, were randomly divided into model group (Model), BIOS-B-12 compound group (10 mg/kg), BIOS-B-18 compound group (10 mg/kg) and dexamethasone group (Dex, 3 mg/kg), with 7 animals in each group. The mice were injected subcutaneously with 500 μg/50 μL histamine at the back of the neck after the administration of dexamethasone for 1 h, BIOS-B-12 for 4 h, and BIOS-B-18 for 1 h, respectively, and immediately observed for 30 min. The number of scratched was recorded and the inhibition rate was calculated as (Model-Compound)/Model×100%.

Sequence of histamine H3 receptor (Q9Y5N1 whole entry, species assumed): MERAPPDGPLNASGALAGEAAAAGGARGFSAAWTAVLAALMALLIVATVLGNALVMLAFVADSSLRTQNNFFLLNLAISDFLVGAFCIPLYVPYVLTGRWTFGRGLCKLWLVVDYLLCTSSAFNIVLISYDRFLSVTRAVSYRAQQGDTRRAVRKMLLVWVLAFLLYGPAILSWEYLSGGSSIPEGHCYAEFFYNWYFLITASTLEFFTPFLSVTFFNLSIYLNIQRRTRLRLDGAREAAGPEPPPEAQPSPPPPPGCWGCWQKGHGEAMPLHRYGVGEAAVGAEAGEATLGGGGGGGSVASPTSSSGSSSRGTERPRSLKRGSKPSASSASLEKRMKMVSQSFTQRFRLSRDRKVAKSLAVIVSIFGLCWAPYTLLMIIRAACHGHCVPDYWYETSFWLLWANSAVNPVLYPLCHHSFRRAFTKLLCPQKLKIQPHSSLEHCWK
Sequence of hERG channel (Q12809 whole entry): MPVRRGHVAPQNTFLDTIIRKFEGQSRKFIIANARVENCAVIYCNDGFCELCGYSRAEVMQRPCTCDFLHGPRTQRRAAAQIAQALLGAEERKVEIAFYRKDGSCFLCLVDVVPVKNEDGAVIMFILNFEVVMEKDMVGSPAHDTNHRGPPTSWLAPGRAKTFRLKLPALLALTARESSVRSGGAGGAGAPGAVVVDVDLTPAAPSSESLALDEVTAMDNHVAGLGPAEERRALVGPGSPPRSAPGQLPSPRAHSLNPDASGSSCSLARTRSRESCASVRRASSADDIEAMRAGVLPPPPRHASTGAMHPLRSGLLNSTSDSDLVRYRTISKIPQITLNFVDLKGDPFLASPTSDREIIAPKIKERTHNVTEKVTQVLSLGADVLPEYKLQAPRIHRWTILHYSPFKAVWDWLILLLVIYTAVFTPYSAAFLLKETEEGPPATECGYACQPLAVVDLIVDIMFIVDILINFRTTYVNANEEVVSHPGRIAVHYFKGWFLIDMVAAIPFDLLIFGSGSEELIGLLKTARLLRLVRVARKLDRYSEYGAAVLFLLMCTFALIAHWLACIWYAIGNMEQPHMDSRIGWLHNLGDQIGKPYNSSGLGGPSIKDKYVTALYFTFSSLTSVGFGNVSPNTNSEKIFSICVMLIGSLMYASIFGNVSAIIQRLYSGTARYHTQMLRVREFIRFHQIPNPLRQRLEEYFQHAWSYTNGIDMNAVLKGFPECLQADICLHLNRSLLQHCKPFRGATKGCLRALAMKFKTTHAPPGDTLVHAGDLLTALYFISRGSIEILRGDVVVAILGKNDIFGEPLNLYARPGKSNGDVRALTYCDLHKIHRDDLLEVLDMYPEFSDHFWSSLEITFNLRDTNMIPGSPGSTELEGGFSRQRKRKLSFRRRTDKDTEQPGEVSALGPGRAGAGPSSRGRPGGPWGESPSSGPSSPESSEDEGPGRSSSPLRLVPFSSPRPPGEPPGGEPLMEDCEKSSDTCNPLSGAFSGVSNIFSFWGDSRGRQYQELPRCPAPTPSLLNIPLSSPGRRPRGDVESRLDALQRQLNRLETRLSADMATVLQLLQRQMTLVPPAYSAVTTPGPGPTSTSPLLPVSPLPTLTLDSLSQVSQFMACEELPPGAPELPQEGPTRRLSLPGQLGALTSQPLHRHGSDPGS

## O=C(CN1CCOCC1)Nc1ccc(OC2CC(N3CCCCC3)C2)cc1 (stereo not shown) [BIOS-B-1, 2-morpholino-N-(4-(3-(piperidin-1-yl)cyclobutoxy)phenyl)acetamide]
hERG channel
  inhibition at 10 µM: 8.54%
Histamine H3 receptor
  inhibition at 0.005 µM: 91.7%
  inhibition at 0.05 µM: 100%

## C[C@@H]1CCCN1CC(=O)Nc1ccc(OC2CC(N3CCCCC3)C2)cc1 (stereo partly drawn) [BIOS-B-2, (R)-2-(2-methylpyrrolidin-1-yl)-N-(4-(3-(piperidin-1-yl)cyclobutoxy)phenyl)acetamide]
Histamine H3 receptor
  inhibition at 0.005 µM: 100%
  inhibition at 0.05 µM: 100%

## O=C(CN1CCCCC1)Nc1ccc(OC2CC(N3CCCCC3)C2)cc1 (stereo not shown) [BIOS-B-3, 2-(piperidin-1-yl)-N-(4-(3-(piperidin-1-yl)cyclobutoxy)phenyl)acetamide]
Histamine H3 receptor
  inhibition at 0.005 µM: 95.6%
  inhibition at 0.05 µM: 99.4%

## CN1CCCN(CC(=O)Nc2ccc(OC3CC(N4CCCCC4)C3)cc2)CC1 (stereo not shown) [BIOS-B-4, 2-(4-methyl-1,4-diazepan-1-yl)-N-(4-(3-(piperidin-1-yl)cyclobutoxy)phenyl)acetamide]
Histamine H3 receptor
  inhibition at 0.005 µM: 101%
  inhibition at 0.05 µM: 100%

## O=C(CN1CCC(F)(F)CC1)Nc1ccc(OC2CC(N3CCCCC3)C2)cc1 (stereo not shown) [BIOS-B-5, 2-(4,4-difluoropiperidin-1-yl)-N-(4-(3-(piperidin-1-yl)cyclobutoxy)phenyl)acetamide]
Histamine H3 receptor
  inhibition at 0.005 µM: 98.9%
  inhibition at 0.05 µM: 99.9%

## O=C(CN1CCC(O)CC1)Nc1ccc(OC2CC(N3CCCCC3)C2)cc1 (stereo not shown) [BIOS-B-6, 2-(4-hydroxypiperidin-1-yl)-N-(4-(3-(piperidin-1-yl)cyclobutoxy)phenyl)acetamide]
Histamine H3 receptor
  inhibition at 0.005 µM: 103%
  inhibition at 0.05 µM: 99.8%

## O=C(CN1CCSCC1)Nc1ccc(OC2CC(N3CCCCC3)C2)cc1 (stereo not shown) [BIOS-B-7, N-(4-(3-(piperidin-1-yl)cyclobutoxy)phenyl)-2-thiomorpholinoacetamide]
Histamine H3 receptor
  inhibition at 0.005 µM: 88.3%
  inhibition at 0.05 µM: 99.5%

## O=C(CN1CCCC(CCO)C1)Nc1ccc(OC2CC(N3CCCCC3)C2)cc1 (stereo not shown) [BIOS-B-8, 2-(3-(2-hydroxyethyl)piperidin-1-yl)-N-(4-(3-(piperidin-1-yl)cyclobutoxy)phenyl)acetamide]
hERG channel
  inhibition at 10 µM: 4.82%
Histamine H3 receptor
  inhibition at 0.005 µM: 101%
  inhibition at 0.05 µM: 99.5%

## O=C(CN1CCNCC1)Nc1ccc(OC2CC(N3CCCCC3)C2)cc1 (stereo not shown) [BIOS-B-9, 2-(piperazin-1-yl)-N-(4-(3-(piperidin-1-yl)cyclobutoxy)phenyl)acetamide]
hERG channel
  inhibition at 10 µM: -1.03%
Histamine H3 receptor
  inhibition at 0.005 µM: 101%
  inhibition at 0.05 µM: 99.6%

## CN1CCN(CC(=O)Nc2ccc(OC3CC(N4CCCCC4)C3)cc2)CC1 (stereo not shown) [BIOS-B-10, 2-(4-methylpiperazin-1-yl)-N-(4-(3-(piperidin-1-yl)cyclobutoxy)phenyl)acetamide]
hERG channel
  inhibition at 10 µM: -1.26%
Histamine H3 receptor
  inhibition at 0.005 µM: 99.5%
  inhibition at 0.05 µM: 97.5%

## O=C(CN1CCCC(O)C1)Nc1ccc(OC2CC(N3CCCCC3)C2)cc1 (stereo not shown) [BIOS-B-11, 2-(3-hydroxypiperidin-1-yl)-N-(4-(3-(piperidin-1-yl)cyclobutoxy)phenyl)acetamide]
hERG channel
  inhibition at 10 µM: 2.96%
Histamine H3 receptor
  inhibition at 0.005 µM: 97%
  inhibition at 0.05 µM: 99.4%

## O=C(NCCN1CCOCC1)Nc1ccc(OC2CC(N3CCCCC3)C2)cc1 (stereo not shown) [BIOS-B-13, 1-(2-morpholinoethyl)-3-(4-(3-(piperidin-1-yl)cyclobutoxy)phenyl)urea]
hERG channel
  inhibition at 10 µM: -1.47%
Histamine H3 receptor
  inhibition at 0.005 µM: 99.6%
  inhibition at 0.05 µM: 99.8%

## C[C@@H]1CCCN1CCNC(=O)Nc1ccc(OC2CC(N3CCCCC3)C2)cc1 (stereo partly drawn) [BIOS-B-14, (R)-1-(2-(2-methylpyrrolidin-1-yl)ethyl)-3-(4-(3-(piperidin-1-yl)cyclobutoxy)phenyl)urea]
CCI model rats; 1 mg/kg single dose by gavage, 0.5 h to 5 h after administration, P<0.05, FIG. 2
  mechanical withdrawal thresholds vs model group: significantly increased
CCI model rats; BIOS-B-14 1 mg/kg vs pregabalin 30 mg/kg, FIG. 2 study
  period of analgesia time compared with pregabalin: longer period of analgesia time than that of pregabalin
hERG channel
  inhibition at 10 µM: 0.17%
Histamine H3 receptor
  inhibition at 0.005 µM: 100%
  inhibition at 0.05 µM: 101%

## O=C(NCCN1CCCCC1)Nc1ccc(OC2CC(N3CCCCC3)C2)cc1 (stereo not shown) [BIOS-B-15, 1-(4-(3-(piperidin-1-yl)cyclobutoxy)phenyl)-3-(2-(piperidin-1-yl)ethyl)urea]
hERG channel
  inhibition at 10 µM: -0.12%
Histamine H3 receptor
  inhibition at 0.005 µM: 99%
  inhibition at 0.05 µM: 100%

## CN1CCCN(CCNC(=O)Nc2ccc(OC3CC(N4CCCCC4)C3)cc2)CC1 (stereo not shown) [BIOS-B-17, 1-(2-(4-methyl-1,4-diazepan-1-yl)ethyl)-3-(4-(3-(piperidin-1-yl)cyclobutoxy)phenyl)urea]
hERG channel
  inhibition at 10 µM: 1.52%
Histamine H3 receptor
  inhibition at 0.005 µM: 101%
  inhibition at 0.05 µM: 99.4%

## O=C(NCCN1CCC(F)(F)CC1)Nc1ccc(OC2CC(N3CCCCC3)C2)cc1 (stereo not shown) [BIOS-B-18, 1-(2-(4,4-difluoropiperidin-1-yl)ethyl)-3-(4-(3-(piperidin-1-yl)cyclobutoxy)phenyl)urea]
hERG channel
  inhibition at 10 µM: -0.65%
[1]; 10 mg/kg
  number of histamine-induced scratched in mice: reduced
[1]; 10 mg/kg vs dexamethasone 3 mg/kg
  antipruritic effect compared with positive control dexamethasone: more effective than the positive control
[1]
  Inhibition Rate (%) of number of scratches: 55.0%
Histamine H3 receptor
  inhibition at 0.005 µM: 99.7%
  inhibition at 0.05 µM: 99.9%

## O=C(NCCN1CCC(O)CC1)Nc1ccc(OC2CC(N3CCCCC3)C2)cc1 (stereo not shown) [BIOS-B-19, 1-(2-(4-hydroxypiperidin-1-yl)ethyl)-3-(4-(3-(piperidin-1-yl)cyclobutoxy)phenyl)urea]
hERG channel
  inhibition at 10 µM: -0.09%
Histamine H3 receptor
  inhibition at 0.005 µM: 101%
  inhibition at 0.05 µM: 101%

## O=C(NCCN1CCSCC1)Nc1ccc(OC2CC(N3CCCCC3)C2)cc1 (stereo not shown) [BIOS-B-20, 1-(4-(3-(piperidin-1-yl)cyclobutoxy)phenyl)-3-(2-thiomorpholinoethyl)urea]
hERG channel
  inhibition at 10 µM: -0.66%
Histamine H3 receptor
  inhibition at 0.005 µM: 100%
  inhibition at 0.05 µM: 101%

## CN1CCN(CCNC(=O)Nc2ccc(OC3CC(N4CCCCC4)C3)cc2)CC1 (stereo not shown) [BIOS-B-22, 1-(2-(4-methylpiperazin-1-yl)ethyl)-3-(4-(3-(piperidin-1-yl)cyclobutoxy)phenyl)urea]
hERG channel
  inhibition at 10 µM: -2.43%
Histamine H3 receptor
  inhibition at 0.005 µM: 101%
  inhibition at 0.05 µM: 99.5%

## O=C(NCCN1CCCC(O)C1)Nc1ccc(OC2CC(N3CCCCC3)C2)cc1 (stereo not shown) [BIOS-B-23, 1-(2-(3-hydroxypiperidin-1-yl)ethyl)-3-(4-(3-(piperidin-1-yl)cyclobutoxy)phenyl)urea]
hERG channel
  inhibition at 10 µM: 0.37%
Histamine H3 receptor
  inhibition at 0.005 µM: 100%
  inhibition at 0.05 µM: 100%

## C[C@@H]1C[C@H]2[C@@H]3CCC4=CC(=O)C=C[C@]4(C)[C@@]3(F)[C@@H](O)C[C@]2(C)[C@@]1(O)C(=O)CO [Dex, dexamethasone, reference compound]
[1]
  Inhibition Rate (%) of number of scratches: 29.3%

## CC(C)C[C@H](CN)CC(=O)O [Pregabalin, pregabalin, reference compound]
CCI model rats; 30 mg/kg single dose by gavage, only from 0.5 h to 1 h after administration, FIG. 2 study
  mechanical withdrawal thresholds vs model group: significantly different
CCI model rats; 30 mg/kg single dose by gavage, only from 0.5 h to 2 h after administration, FIG. 1 study
  mechanical withdrawal thresholds vs model group: significantly different

## O=C(CN1CCOCC1)Nc1ccc(OC2CCN(C3CCC3)CC2)cc1 [SUVN-G3031, Samelisant, reference compound]
Histamine H3 receptor
  inhibition at 0.005 µM: 57.8%
  inhibition at 0.05 µM: 85.8%
